Where “and” joins values, the source holds several entries; their conditions need not be identical. Equal values may be shown once.
Legend:
[1] = tested on: PBMC of chronic lymphocytic leukemia (CLL) patients; assay: Viability of primary CLL cells in suspension culture; assay type: cell-based; details: Homo sapiens, CLL cell, 48 h
Description: Hematological cell lines were acquired from the Leibniz Institute DSMZ-German Collection of Microorganisms and Cell Cultures (www.dsmz.de). Sixteen patients diagnosed with chronic lymphocytic leukemia at the Division of Hematology and Hemostaseology at the Vienna General Hospital and four healthy donors were included in the study. All participants signed informed consent according to the Declaration of Helsinki (Ethics Committee Nr: EK 1722/2012). Peripheral blood mononuclear cells (PBMC) were isolated using standardized Ficoll-Hypaque gradient centrifugation (Seromed, Berlin, Germany) and stored in liquid nitrogen until use. […]
Primary cells were incubated at a density of 300,000 cells per well in 96-well plates in a total volume of 100 μl of Gibco RPMI 1640+L-glutamine (PAA Laboratories) supplemented with 20% FBS gold with increasing concentrations of compounds for 48 h. […] Viability was measured using CellTiter-Blue Cell Viability Assay (Promega, Madison, Wis., USA) following the instructions of the manufacturers. Experiments with primary cells were done in triplicates, IC50 values were calculated from the mean values of all samples used in the various experiments using GraphPad Prism 5 software. […]

[2] = tested on: CCRF; assay: Viability test on CCRF cells; assay type: cell-based, human
Protocol: JURKAT and CCRF-CEM (T-cell acute lymphoblastic leukemia), HL60 and K562 representing acute and chronic myeloid leukemia, respectively, the chronic lymphocytic leukemia cell line MEC-1, and the diffuse large B-cell lymphoma cell line U-2940 were cultured in Gibco RPMI 1640+GlutaMAX (Life Technologies, Carlsbad, Calif., USA) supplemented with 10% fetal bovine serum gold (FBS gold; PAA Laboratories, Pasching, Austria) and 1% PenStrep (100 U/ml penicillin and 100 μg/ml streptomycin; PAA Laboratories), and maintained at 37° C. in humidified atmosphere with 5% CO2. […]
All experiments with hematological cell lines were done using phenol red-free RPMI 1640+L-glutamine (PAA Laboratories) supplemented with 1% PenStrep and 10% FBS gold, except experiments with OCI-Ly7 which were carried out in Gibco IMEM+GlutaMAX and 25 mM HEPES containing 20% FBS gold and 1% PenStrep. Cells were incubated in triplicates with increasing concentrations of the compounds for 48 h, changes in viability were determined using the cell proliferation and cytotoxicity assays EZ4U (Biomedica Group, Austria) and CellTiter-Blue Cell Viability Assay (Promega, Madison, Wis., USA) following instructions of the manufacturers. IC50 values were calculated from two independent experiments using GraphPad Prism 5 software. […]

[3] = tested on: PBMC of CLL patients cultured over a layer of mouse fibroblast cells (M2-10B4); assay: Viability of CLL cells in co-culture with M2-10B4 fibroblast cells; assay type: cell-based; details: Homo sapiens, M210B4, 48 h
Protocol: Primary cells were incubated at a density of 300,000 cells per well in 96-well plates in a total volume of 100 μl of Gibco RPMI 1640+L-glutamine (PAA Laboratories) supplemented with 20% FBS gold with increasing concentrations of compounds for 48 h. For co-culture experiments, 150,000 M2-10B4 mouse fibroblast cells were seeded into 12-well plates and allowed to form a confluent layer over night. Supernatant was replaced by 3 million primary cells in a total volume of 1 ml medium and incubated with increasing concentrations of compounds for 48 h. Viability was measured using CellTiter-Blue Cell Viability Assay (Promega, Madison, Wis., USA) following the instructions of the manufacturers. Experiments with primary cells were done in triplicates, IC50 values were calculated from the mean values of all samples used in the various experiments using GraphPad Prism 5 software.
As a last step, it has been sought to evaluate the cytotoxicity of compound 15 in primary cells and compare its activity to the impact of fludarabine. To this end, peripheral blood mononuclear cells (PBMC) of chronic lymphocytic leukemia (CLL) patients were used in two experimental settings. They were cultured in conventional suspension culture being exposed to increasing concentrations of drug. […]

[4] = tested on: OCI-Ly7; assay: Viability test on OCI-Ly7 cells, 48 h; assay type: cell-based, human; details: 48 h incubation; nd = no significant cytotoxic activity up to 100 μM
Protocol: (§1) JURKAT and CCRF-CEM (T-cell acute lymphoblastic leukemia), HL60 and K562 representing acute and chronic myeloid leukemia, respectively, the chronic lymphocytic leukemia cell line MEC-1, and the diffuse large B-cell lymphoma cell line U-2940 were cultured in Gibco RPMI 1640+GlutaMAX (Life Technologies, Carlsbad, Calif., USA) supplemented with 10% fetal bovine serum gold (FBS gold; PAA Laboratories, Pasching, Austria) and 1% PenStrep (100 U/ml penicillin and 100 μg/ml streptomycin; PAA Laboratories), and maintained at 37° C. in humidified atmosphere with 5% CO2. The diffuse large B-cell lymphoma cell line OCI-LY7 was cultured in Gibco IMDM+GlutaMAX and 25 mM HEPES (Life Technologies) containing 20% FBS gold and 1% PenStrep.
(§2) All experiments with hematological cell lines were done using phenol red-free RPMI 1640+L-glutamine (PAA Laboratories) supplemented with 1% PenStrep and 10% FBS gold, except experiments with OCI-Ly7 which were carried out in Gibco IMEM+GlutaMAX and 25 mM HEPES containing 20% FBS gold and 1% PenStrep. Cells were incubated in triplicates with increasing concentrations of the compounds for 48 h, changes in viability were determined using the cell proliferation and cytotoxicity assays EZ4U (Biomedica Group, Austria) and CellTiter-Blue Cell Viability Assay (Promega, Madison, Wis., USA) following instructions of the manufacturers. IC50 values were calculated from two independent experiments using GraphPad Prism 5 software.
(§3) Initially, compounds were biologically tested in six concentration steps (0.1 μM; 1 μM; 5 μM; 10 μM; 50 μM; and 100 μM) using the CellTiter-Blue Cell Viability Assay (Promega, Madison, Wis., USA) and an incubation time of 48 hours. […] IC50 values were calculated from at least two independent experiments with 3 replicates each. In order to evaluate the biologic activity of the new compounds, cytotoxicity was compared to that of fludarabine, an already approved drug for the treatment of various B-cell malignancies. […] Differences in IC50 values for the different cell types can be explained by the biological and genetic particularities of each subtype of B-cell Non-Hodgkin lymphoma (Stacchini A et al. Leukemia Res 1999, 23, 127-136; Sambade C et al. Int J Cancer 2006, 118, 555-563; Chang H et al. Leukemia lymphoma 1995, 19, 165-171; Tweeddale M E et al. Blood 1987, 69, 1307-1314; Tweeddale M et al. Blood 1989, 74, 572-578).

[5] = tested on: U-2940; assay: Viability test on U-2940 cells, 48 h; assay type: cell-based, human; details: 48 h incubation; nd = no significant cytotoxic activity up to 100 μM
Protocol: as §1, §2, §3

[6] = tested on: SU-DHL9; assay: Viability test on SU-DHL9 cells; assay type: cell-based, human
Protocol: as §2
(§4) Hematologic malignancies are highly heterogeneous in their biology and behavior. This and the fact that some patient groups are resistant to therapy underlines the urgent need for new therapeutic drugs. Compound 15 has therefore been tested on other cell lines representing a variety of hematologic neoplasms: two T-cell acute leukemia cell lines (CCRF, Jurkat), two myeloid leukemia cell lines (HL60, K562), and two additional B-cell lines (SU-DHL6, SU-DHL9). Viability was assessed as described in the methods section above. […] An exception was the chronic myeloid leukemia line K562. […]

[7] = tested on: SU-DHL6; assay: Viability test on SU-DHL6 cells; assay type: cell-based, human
Protocol: as §2, §4

For `CCOc1ccccc1C(=O)/C=C/c1cc2ccccc2[nH]1` [Compound 15, 1-(2-Ethoxyphenyl)-3-(1H-indole-2-yl)-2-propen-1-one], the IC50 [1] was 1180 nM, the “viability, % of control” value ([2]; CCRF, at concentrations <1 μM) was “less than 30 % of control” and the IC50 ([2]; Homo sapiens, T-cell acute leukemia, nd = no significant cytotoxic activity up to 100 μM) was 30 nM. For the same compound, the IC50 [3] was 680 nM, the IC50 [4] was 2900 nM and the IC50 [5] was 50 nM and 52 nM. For the same compound, the IC50 ([6]; Homo sapiens, B-cell lymphoma, nd = no significant cytotoxic activity up to 100 μM) was 30 nM, the “viability, % of control” value ([6]; SU-DHL9, at concentrations <1 μM) was “less than 30 % of control” and the IC50 ([7]; Homo sapiens, SU-DHL-6, B-cell lymphoma, nd = no significant cytotoxic activity up to 100 μM) was 60 nM. For the same compound, the “viability, % of control” value ([7]; SU-DHL6, at concentrations <1 μM) was “less than 30 % of control”.

— patent US10280156B2, “Heteroaromatic chalcone derivatives and their medical use” (Medizinische Universität Wien, priority 2014, dated 2019)
